Data: ChEMBL document CHEMBL1141854, “A new 1,2-dihydroisoquinoline from the sponge petrosia similis” (J Nat Prod, 1999)
Activity calls are given as the source filed them. The rule behind the calls is not given here.

What was measured:
[1] = system: Klebsiella pneumoniae; assay: Antibacterial activity against Klebsiella pneumoniae at 100 ug/disk; format: functional
[2] = system: Artemia; assay: Toxicity against brine shrimp; format: organism-based; conditions: in vivo
[3] = system: Escherichia coli; assay: Antibacterial activity against sEscherichia coli at 100 ug/disk; format: functional
[4] = system: Staphylococcus aureus; assay: Antibacterial activity against Staphylococcus aureus at 100 ug/disk; format: functional
[5] = system: Bacillus subtilis; assay: Antibacterial activity against Bacillus subtilis at 100 ug/disk; format: functional

Compound	zone of inhibition at 100 µg/disc ([1]; read-out: IZ) [mm]	Activity [2]	zone of inhibition at 100 µg/disc ([3]; read-out: IZ) [mm]	zone of inhibition at 100 µg/disc ([4]; read-out: IZ) [mm]	zone of inhibition at 100 µg/disc ([5]; read-out: IZ) [mm]	Activity [1]	Activity [3]	Activity [4]	Activity [5]
CC(=O)OCc1nccc2c1C(=O)C(O)=C(C)C2=O	12	Non-toxic	12	14	16				
COc1cc(O)c2c(c1)C(COC(C)=O)N(C=O)C=C2 (stereo not given)		Non-toxic				inactive	inactive	inactive	inactive
